The record followed here is ChEMBL document CHEMBL6083190, “Synthesis and mechanistic study of Aβ42 C-terminus domain derived tetrapeptides that inhibit Alzheimer's Aβ-aggregation-induced neurotoxicity” (Bioorg Med Chem Lett, 2024).

The source made the active and inactive calls. No cut-off for these calls is given here. Non-standard residues stand in square brackets, D forms with d. Residues, ends and D or L forms follow the SMILES beside them. ξ: configuration not given here. Tle = CC(C)(C)[C@H](N)C(=O)O; ξOic = O=C(O)C1CC2CCCCC2N1; Aib = CC(C)(N)C(=O)O

Test [1] relates to PC-12. Nature of the test: Protection against amyloid beta-induced neurotoxicity in rat PC-12 cells assessed as cell viability at 2 uM by MTT assay (reference value: 63.6 %). The test is classed as functional. To be noted: read-out: Activity.
The subject of test [2] is PC-12. Put plainly: Protection against amyloid beta-induced neurotoxicity in rat PC-12 cells assessed as cell viability at 4 uM by MTT assay (reference value: 63.6 %). The test is classed as functional. The conditions noted are these: read-out: Activity.
Test [3] concerns PC-12. Nature of the test: Protection against amyloid beta-induced neurotoxicity in rat PC-12 cells assessed as cell viability at 10 uM by MTT assay (reference value: 63.6 %). To be noted: read-out: Activity. The test is classed as functional.
Test [4] can be described thus: Inhibition of amyloid beta-induced neurotoxicity in rat PC-12 cells at 2 uM by MTT assay relative to control. The test is classed as functional.
Test [5] can be described thus: Inhibition of amyloid beta-induced neurotoxicity in rat PC-12 cells at 4 uM by MTT assay relative to control. The test is classed as functional.
The nature of test [6]: Inhibition of amyloid beta-induced neurotoxicity in rat PC-12 cells at 10 uM by MTT assay relative to control. It is filed as functional.
In test [7] the target is Amyloid-beta precursor protein (Homo sapiens) (UniProt P05067). Put plainly: Inhibition of amyloid beta (1 to 42) (unknown origin) self aggregation at 2 to 10 uM by ThT fluorescence assay. The conditions noted are these: dose 2-10 µM.
Test [8] has the same target. Put plainly: Inhibition of amyloid beta (1 to 42) (unknown origin) self aggregation by ThT fluorescence assay relative to control. To be noted: concentration not given here.
The target is the same in test [9]. Put plainly: Inhibition of amyloid beta (1 to 42) (unknown origin) self-aggregation assessed as absence of fibrillar aggregates at 1:5 amyloid-beta:compound concentration ratio incubated for 72 hrs by high-resolution transmission electron microscopic analysis.
Test [10] has the same target. Nature of the test: Inhibition of amyloid beta (1 to 42) (unknown origin) self-aggregation assessed as absence of fibrillar aggregates at 1:5 amyloid-beta:compound concentration ratio incubated for 72 hrs by scanning transmission electron microscopic analysis.
Test [11] shares this target. Nature of the test: Inhibition of amyloid beta (1 to 42) (unknown origin) self-aggregation assessed as absence of fibrillar aggregates at 1:5 amyloid-beta:compound concentration ratio measured immediately by high-resolution transmission electron microscopic analysis.
For test [12] the target is unchanged. Put plainly: Inhibition of amyloid beta (1 to 42) (unknown origin) self-aggregation assessed as absence of fibrillar aggregates at 1:5 amyloid-beta:compound concentration ratio measured immediately by scanning transmission electron microscopic analysis.

Amyloid-beta precursor protein (Homo sapiens), sequence (P05067 whole entry): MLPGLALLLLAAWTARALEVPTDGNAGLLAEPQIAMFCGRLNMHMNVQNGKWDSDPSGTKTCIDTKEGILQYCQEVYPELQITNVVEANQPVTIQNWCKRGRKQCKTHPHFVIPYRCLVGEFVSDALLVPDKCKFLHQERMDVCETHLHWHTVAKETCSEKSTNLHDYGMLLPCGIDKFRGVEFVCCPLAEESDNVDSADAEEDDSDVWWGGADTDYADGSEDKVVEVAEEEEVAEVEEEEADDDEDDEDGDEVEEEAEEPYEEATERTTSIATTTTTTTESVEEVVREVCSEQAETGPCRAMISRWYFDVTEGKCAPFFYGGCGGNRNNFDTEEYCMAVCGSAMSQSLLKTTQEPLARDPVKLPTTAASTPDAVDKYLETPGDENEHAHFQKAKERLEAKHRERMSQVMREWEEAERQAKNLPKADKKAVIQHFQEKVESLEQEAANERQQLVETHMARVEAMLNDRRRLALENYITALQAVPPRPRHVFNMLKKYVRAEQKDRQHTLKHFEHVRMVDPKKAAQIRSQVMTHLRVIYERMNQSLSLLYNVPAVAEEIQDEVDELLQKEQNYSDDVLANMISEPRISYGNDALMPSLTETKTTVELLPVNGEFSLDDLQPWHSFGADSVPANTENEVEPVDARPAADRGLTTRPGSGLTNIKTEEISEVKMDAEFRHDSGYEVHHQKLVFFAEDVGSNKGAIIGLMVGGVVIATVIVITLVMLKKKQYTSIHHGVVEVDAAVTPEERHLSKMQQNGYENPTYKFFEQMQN

`CC[C@H](C)[C@H](NC(=O)[C@H](C)N)C(=O)N[C@H](C(=O)NC(C)(C)C(N)=O)C(C)C` (H-AIV[Aib]-NH2): the viability at 2 µM in test [1] turned out to be 75.3%. In addition, the viability at 4 µM in test [2] was 67%. In addition, the viability at 10 µM in test [3] was found to be 70.9%. Further, in test [4], 2 µM produced 32% inhibition. This compound registered an inhibition at 4 µM in test [5] of 9%. The inhibition at 10 µM in test [6] amounted to 20%. For the same compound, in test [7], the inhibition result is “Active”.
`CC[C@H](C)[C@H](NC(=O)[C@H](C)N)C(=O)N[C@H](C(=O)N[C@H](Cc1ccccc1)C(N)=O)C(C)C`: the viability at 2 µM in test [1] is 55.2%. The viability at 4 µM in test [2] came to 69.1%. The viability at 10 µM in [3] is 76.4%. The same compound yielded an inhibition at 2 µM in test [4] of 0%. The same compound came in with an inhibition at 4 µM in [5] of 15%. In addition, the inhibition at 10 µM in test [6] is 35%. Besides, the inhibition entry in test [7] was “Active”.
Take `CC[C@H](C)[C@H](NC(=O)[C@@H](NC(=O)C1Cc2ccccc2CN1)C(C)C)C(=O)N[C@@H](C)C(N)=O` (stereo partly specified): the viability at 2 µM in [1] came out at 68.8%. Further, the viability at 4 µM in test [2] was 62.4%. For the same compound, the viability at 10 µM in test [3] was 61.8%. This compound returned an inhibition at 2 µM in test [4] of 14%. The same compound returned an inhibition at 4 µM in test [5] of 0%. This compound had an inhibition at 10 µM in [6] of 0%. For the same compound, the inhibition entry in test [7] was “Active”.
`CC[C@H](C)[C@H](NC(=O)[C@@H](NC(=O)[C@@H](N)C(C)C)C(C)(C)C)C(=O)N[C@@H](C)C(N)=O` (H-V[Tle]IA-NH2): the viability at 2 µM in test [1] was 77.7%. Further, the viability at 4 µM in test [2] is 78.8%. Besides, the viability at 10 µM in test [3] was 74.9%. Also, in [4], the inhibition at 2 µM amounted to 39%. In test [5], this compound yielded an inhibition at 4 µM of 42%. This compound also returned an inhibition at 10 µM in test [6] of 31%. Further, the inhibition entry in test [7] is “Active”.
On to `CC[C@H](C)[C@H](NC(=O)[C@H](N)Cc1ccccc1)C(=O)N[C@H](C(=O)N[C@H](C(N)=O)C(C)C)C(C)C`, for which the viability at 2 µM in test [1] stood at 68.4%. In test [2], the viability at 4 µM was determined as 54.7%. Besides, the viability at 10 µM in [3] came out at 67%. The compound further showed an inhibition at 2 µM in [4] of 13%. In test [5], this compound registered an inhibition at 4 µM of 0%. At 10 µM the inhibition in test [6] was 9.3%.
Turning to `CC[C@H](C)[C@H](NC(=O)C1Cc2ccccc2CN1C(=O)[C@@H](N)C(C)C)C(=O)N[C@@H](C)C(N)=O` (stereo partly specified), the viability at 2 µM in test [1] amounted to 95.4%. Besides, the viability at 4 µM in [2] came to 80.3%. Also, in test [3], the viability at 10 µM came to 76.1%. In addition, the inhibition at 2 µM in test [4] is 87%. The compound further registered an inhibition at 4 µM in test [5] of 46%. Moreover, the inhibition at 10 µM in test [6] is 34%. In test [8], this compound gave an inhibition greater than 50%. Besides, the inhibition result in test [7] is “Active”.
Turning to `CC[C@H](C)[C@H](NC(=O)[C@@H](NC(=O)C1CC2CCCCC2N1)C(C)C)C(=O)N[C@@H](C)C(N)=O` (stereo partly specified), the viability at 2 µM in test [1] came to 65.3%. The viability at 4 µM in test [2] came to 63.3%. In test [3], the viability at 10 µM is 57.7%. In [4], this compound showed an inhibition at 2 µM of 5%. Also, the inhibition at 4 µM in [5] came to 0%. Further, the inhibition at 10 µM in [6] came to 0%. The inhibition result in test [9] is “Not active; Formation Of Small, Non-Fibrillar Like Amorphous Aggregates Observed”; in [10], “Not active; Formation Of Small, Non-Fibrillar Like Amorphous Aggregates Observed”; in test [11] it was “Not active; Small Aggregates Observed”; in test [12], “Not active; Small Aggregates Observed”.
`CC[C@H](C)[C@H](NC(=O)[C@@H](NC(=O)[C@@H](N)C(C)C)C(C)C)C(=O)N[C@@H](C)C(N)=O`: in test [1], the viability at 2 µM is 60.7%. Further, the viability at 4 µM in [2] turned out to be 59.4%. In addition, the viability at 10 µM in [3] was found to be 63.4%. In addition, at 2 µM the inhibition in [4] was 0%. In [5], this compound had an inhibition at 4 µM of 0%. In addition, testing at 10 µM in test [6] gave an inhibition of 0%.
With `CC[C@@H](C)[C@@H](NC(=O)[C@@H](C)N)C(=O)N[C@@H](C(=O)N[C@@H](C(N)=O)C(C)C)C(C)C`, the viability at 2 µM in test [1] turned out to be 68.7%. Also, in test [2], the viability at 4 µM is 63.3%. In addition, in test [3], the viability at 10 µM was determined as 74.6%. The same compound returned an inhibition at 2 µM in [4] of 14%. The same compound displayed an inhibition at 4 µM in test [5] of 0%. The compound also registered an inhibition at 10 µM in test [6] of 30%.
For the compound `CC[C@H](C)[C@H](NC(=O)C1CC2CCCCC2N1C(=O)[C@@H](N)C(C)C)C(=O)N[C@@H](C)C(N)=O` (stereo partly specified) (H-V[ξOic]IA-NH2), the viability at 2 µM in test [1] turned out to be 64.1%. Further, the viability at 4 µM in test [2] is 78.6%. Besides, the viability at 10 µM in [3] came out at 62.1%. The compound also came in with an inhibition at 2 µM in test [4] of 1%. Moreover, the inhibition at 4 µM in [5] was 41%. The compound further came in with an inhibition at 10 µM in [6] of 0%.
On to `CC[C@@H](C)[C@@H](NC(=O)[C@H](NC(=O)[C@H](N)C(C)C)C(C)C)C(=O)N[C@H](C)C(N)=O`, for which the viability at 2 µM in test [1] came out at 73.3%. Besides, in test [2], the viability at 4 µM came out at 65.6%. For the same compound, the viability at 10 µM in [3] stood at 64.1%. The same compound returned an inhibition at 2 µM in test [4] of 27%. Also, the inhibition at 4 µM in test [5] is 6%. In test [6], this compound came in with an inhibition at 10 µM of 1%.
As to `CC[C@H](C)[C@H](NC(=O)[C@H](C)N)C(=O)N[C@H](C(=O)N[C@H](C(N)=O)C(C)C)C(C)C`, the viability at 2 µM in [1] turned out to be 55.2%. Further, the viability at 4 µM in [2] stood at 69%. The viability at 10 µM in [3] was found to be 58.3%. Further, the inhibition at 2 µM in test [4] was found to be 0%. The inhibition at 4 µM in [5] was determined as 15%. Also, the inhibition at 10 µM in test [6] was found to be 0%.
On to `CC(C)[C@H](NC(=O)[C@@H](NC(=O)C(C)(C)NC(=O)[C@H](C)N)C(C)C)C(N)=O` (H-A[Aib]VV-NH2), for which, in [1], the viability at 2 µM is 52.1%. For the same compound, the viability at 4 µM in test [2] worked out at 75.3%. Besides, in test [3], the viability at 10 µM turned out to be 59.6%. The compound further yielded an inhibition at 2 µM in [4] of 0%. In test [5], this compound yielded an inhibition at 4 µM of 32%. In test [6], this compound gave an inhibition at 10 µM of 0%.
For the compound `CC[C@H](C)[C@H](NC(=O)[C@@H](NC(=O)[C@@H](N)C(C)(C)C)C(C)C)C(=O)N[C@@H](C)C(N)=O` (H-[Tle]VIA-NH2), the viability at 2 µM in test [1] was found to be 79.9%. Besides, the viability at 4 µM in test [2] was found to be 61.1%. For the same compound, the viability at 10 µM in test [3] was 64.6%. In test [4], the inhibition at 2 µM stood at 45%. Moreover, in test [5], testing at 4 µM gave an inhibition of 0%. The compound also displayed an inhibition at 10 µM in test [6] of 3%.
`CC[C@H](C)[C@H](NC(=O)[C@@H](NC(=O)[C@@H](N)C(C)C)C(C)C)C(=O)N[C@@H](Cc1ccccc1)C(N)=O` (H-VVIF-NH2): the viability at 2 µM in test [1] was 85.6%. Also, the viability at 4 µM in test [2] turned out to be 83.6%. In addition, the viability at 10 µM in test [3] is 66.9%. Also, at 2 µM the inhibition in [4] was 60%. Besides, the inhibition at 4 µM in [5] amounted to 55%. In [6], this compound showed an inhibition at 10 µM of 9%. The compound also returned an inhibition in [8] greater than 50%.
